{"source": "paper PMC12006171", "about": "“Marsupial cathelicidins: characterization, antimicrobial activity and evolution in this unique mammalian lineage” (Frontiers in Immunology, 2025)", "key": {"[1]": {"system": "six bacteria (S. aureus, E. coli, P. aeruginosa; ATCC and clinical isolate)", "format": "cell-based", "settings": "broth microdilution screening, phase I or II; Y/N summary over the bacteria tested; synthesized mature peptide", "procedure": "(§1) Antimicrobial testing of 78 cathelicidin MPs was performed in two phases as outlined in Figure 1 . In phase I, 40 peptides (27 extant and 13 ancestral) were selected for testing based on rank (outlined above) and similarity to published marsupial cathelicidins with known antimicrobial activity ([33], [41]–[43]). These peptides were tested against nine bacteria (Staphylococcus aureus ATCC 29213 and clinical isolate, Escherichia coli ATCC 25922 and clinical isolate, Pseudomonas aeruginosa ATCC 27853 and clinical isolate, Streptococcus agalactiae ATCC 12386 and clinical isolate, Streptococcus pneumoniae ATCC 49619) and three fungi (Candida krusei ATCC 6258, Candida parapsilosis ATCC 22019, and Candida albicans clinical isolate). Details regarding these strains are available in Supplementary Table 4 . The antimicrobial activity of cathelicidins was determined as the minimum inhibitory concentration (MIC), which was the lowest concentration of cathelicidin that prevented visible bacterial or fungal growth, relative to the negative control. […] Minimum bactericidal concentration (MBC) and/or minimum fungicidal concentration (MFC) was conducted to determine microbicidal versus static action. Activity against S. aureus ATCC, E. coli ATCC, and Pseudomonas aeruginosa ATCC 27853 was examined in the presence of divalent cations to determine the impact of inhibitors.\n(§2) In phase II, the remaining 38 peptides (37 extant and one ancestral) were tested against six bacteria (S. aureus ATCC and clinical isolate, E. coli ATCC and clinical isolate, and P. aeruginosa ATCC and clinical isolate). […] No further testing on phase II peptides was performed. Detailed methods for all assays are provided in subsequent sections.\n(§3) Antimicrobial activity was determined using a broth microdilution susceptibility assay in 96 well polypropylene plates according to Clinical Laboratory Standards Institute guidelines M07-A and M26A as described previously ([33], [42], [43]). The bacterial and fungal isolates from humans and animals used in this study are outlined in Supplementary Table 4 . Only yeasts were included in the panel of fungi as they have been used in the susceptibility testing of eutherian ([3], [81]–[83]) and other marsupial cathelicidins previously ([33], [42], [43]). Cathelicidin mature peptides were solubilized in DMSO and serially diluted in duplicate from 128-0.25μg/mL in a final volume of 100µL. For bacteria, cathelicidins were diluted in Mueller Hinton Broth (MHB) with or without 10% lysed horse blood, and with (MH II B) or without (MHB) calcium and magnesium cations. For fungi, cathelicidins were diluted in Roswell Park Memorial Institute medium (RPMI)-1640 MOPS. Ampicillin or tetracycline were included as a positive control for Gram-positive and -negative bacteria respectively, while amphotericin B was used for fungi. A media-only negative control and growth control (no cathelicidin) were also included on each plate. Bacteria were sub-cultured on Muller Hinton agar (MHA) or sheep blood agar (BA), and fungi on Sabouraud dextrose agar (SAB), 20–24 hours prior to the test. Colonies were suspended in saline, the concentration adjusted to a 0.5 McFarland standard, and then diluted in media to a concentration of 1.0 x 10^6 cells/mL. Then, 100μL was added to each well of the cathelicidin dilution plate, giving a final inoculum density of 5 x 10^5 CFU/mL and cathelicidin concentration of 64-0.125μg/mL. Colony counts were performed on MHA/BA/SAB to confirm inoculum density. All plates were incubated at 35°C for 20–24 hours, depending on the strain.\n(§4) Colonies were counted and compared to the colony count of the starting inoculum."}, "[2]": {"system": "six bacteria (S. aureus, E. coli, P. aeruginosa; ATCC and clinical isolate)", "design": "method as in 4 sources, ref Peel et al 2016 ||| ref Peel et al 2021 ||| ref Wang et al 2011 ||| ref Peel et al 2017", "settings": "cited from earlier work"}, "[3]": {"system": "three fungi (Candida krusei, Candida parapsilosis, Candida albicans)", "design": "method as in 4 sources, ref Peel et al 2016 ||| ref Peel et al 2021 ||| ref Wang et al 2011 ||| ref Peel et al 2017", "settings": "cited from earlier work"}, "[4]": {"system": "Escherichia coli ATCC 25922", "test": "microbe, parasite or virus in culture", "format": "cell-based", "settings": "µM equivalent of Table 3", "procedure": "as §1, §2, §3, §4"}, "[5]": {"system": "Escherichia coli clinical isolate - animal", "test": "microbe, parasite or virus in culture", "format": "cell-based", "settings": "clinical isolate; µM equivalent of Table 3", "procedure": "as §1, §2, §3, §4"}, "[6]": {"system": "Pseudomonas aeruginosa ATCC 27853", "test": "microbe, parasite or virus in culture", "format": "cell-based", "settings": "µM equivalent of Table 3; read-out: MIC P. aeruginosa ATCC", "procedure": "as §1, §2, §3, §4"}, "[7]": {"system": "Pseudomonas aeruginosa clinical isolate - animal", "test": "microbe, parasite or virus in culture", "format": "cell-based", "settings": "clinical isolate; µM equivalent of Table 3; read-out: MIC P. aeruginosa", "procedure": "as §1, §2, §3, §4"}, "[8]": {"system": "Staphylococcus aureus ATCC 29213", "test": "microbe, parasite or virus in culture", "format": "cell-based", "settings": "µM equivalent of Table 3; read-out: MIC S. aureus ATCC", "procedure": "as §1, §2, §3, §4"}, "[9]": {"system": "Staphylococcus aureus clinical isolate - animal", "test": "microbe, parasite or virus in culture", "format": "cell-based", "settings": "clinical isolate; µM equivalent of Table 3; read-out: MIC S. aureus", "procedure": "as §1, §2, §3, §4"}, "[10]": {"settings": "mature peptide, Y/N summary from earlier study, ref Peel et al 2017"}, "[11]": {"settings": "mature peptide (MP), Y/N summary, ref Peel et al 2017"}, "[12]": {"settings": "mature peptide, Y/N summary from earlier study, ref Peel et al 2021"}, "[13]": {"settings": "mature peptide, Y/N summary from earlier study, ref Peel et al 2016"}}, "note": "Like-named read-outs stand apart in the source and are kept apart here.", "data": [{"sequence": "PGRKKGSKRHKPGSYSVIALGKPGVKKAPYMEAL [MagiCath2]", "values": [{"measurement": "Antibacterial (MIC <64ug/mL)", "setting": "[1]", "result": "N (Antibacterial (MIC <64ug/mL))"}]}, {"sequence": "PGRKKGSKRHKPGSYSVIALGKPGVKKSPYMEAL [MaeuCath8]", "values": [{"measurement": "Antibacterial (MIC <64ug/mL)", "setting": "[2]; [10]", "result": "N (Peel et al 2017) (Antibacterial (MIC <64ug/mL))"}, {"measurement": "Antifungal (MIC <64ug/mL)", "setting": "[3]; [10]", "result": "N (Peel et al 2017) (Antifungal (MIC <64ug/mL))"}]}, {"sequence": "PIRTKRRWKLIKKGGKIVKDLLTKNNIIILPGGNE [TaacCath1]", "values": [{"measurement": "Antibacterial (MIC <64ug/mL)", "setting": "[2]; [11]", "result": "Y (Peel et al 2017) (Antibacterial (MIC <64ug/mL))"}, {"measurement": "Antifungal (MIC <64ug/mL)", "setting": "[3]; [11]", "result": "N (Peel et al 2017) (Antifungal (MIC <64ug/mL))"}]}, {"sequence": "PKQKNGSKNRRFRIGGYTMISMKQPRVQKAPYMEAL [ModoCath9]", "values": [{"measurement": "Antibacterial (MIC <64ug/mL)", "setting": "[2]; [11]", "result": "N (Peel et al 2017) (Antibacterial (MIC <64ug/mL))"}, {"measurement": "Antifungal (MIC <64ug/mL)", "setting": "[3]; [11]", "result": "N (Peel et al 2017) (Antifungal (MIC <64ug/mL))"}]}, {"sequence": "PPEPLRFKRIRCLNGRKCNYHNLLLTIVPHWRIPKGK [PhciCath3]", "values": [{"measurement": "Antibacterial (MIC <64ug/mL)", "setting": "[2]; [12]", "result": "N (Peel et al 2021) (Antibacterial (MIC <64ug/mL))"}, {"measurement": "Antifungal (MIC <64ug/mL)", "setting": "[3]; [12]", "result": "N (Peel et al 2021) (Antifungal (MIC <64ug/mL))"}]}, {"sequence": "PRRKKGPKKDNYKPGGYSLIALGKPDIQKAPYMEAL [MaruCath7]", "values": [{"measurement": "Antibacterial (MIC <64ug/mL)", "setting": "[1]", "result": "N (Antibacterial (MIC <64ug/mL))"}]}, {"sequence": "RTFGNLIHQKYRKLLEAYRKLRDIFSG [ModoCath5]", "values": [{"measurement": "Antibacterial (MIC <64ug/mL)", "setting": "[2]; [11]", "result": "N (Peel et al 2017) (Antibacterial (MIC <64ug/mL))"}, {"measurement": "Antifungal (MIC <64ug/mL)", "setting": "[3]; [11]", "result": "N (Peel et al 2017) (Antifungal (MIC <64ug/mL))"}]}, {"sequence": "RTLLRRVGEKVKTRFIAALEKLIDTFLP [MagiCath3, predicted eastern grey kangaroo cathelicidin mature peptide]", "values": [{"measurement": "MBC E. coli ATCC", "setting": "[4]; value in brackets", "result": "> 14.3", "unit": "µM"}, {"measurement": "MIC E. coli ATCC", "setting": "[4]", "result": 14.3, "unit": "µM"}, {"measurement": "MIC", "setting": "[5]", "result": ">14.3", "unit": "µM"}, {"measurement": "MIC", "setting": "[6]", "result": ">14.3", "unit": "µM"}, {"measurement": "MIC", "setting": "[7]", "result": ">14.3", "unit": "µM"}, {"measurement": "MIC", "setting": "[8]", "result": ">14.3", "unit": "µM"}, {"measurement": "MIC", "setting": "[9]", "result": ">14.3", "unit": "µM"}, {"measurement": "Antibacterial (MIC <64ug/mL)", "setting": "[1]", "result": "Y (Antibacterial (MIC <64ug/mL))"}]}, {"sequence": "SKTKRRSLLKRLGDGIRGFWNGFRGRK [ModoCath4]", "values": [{"measurement": "Antibacterial (MIC <64ug/mL)", "setting": "[2]; [11]", "result": "Y (Peel et al 2017) (Antibacterial (MIC <64ug/mL))"}, {"measurement": "Antifungal (MIC <64ug/mL)", "setting": "[3]; [11]", "result": "Y (Peel et al 2017) (Antifungal (MIC <64ug/mL))"}]}, {"sequence": "STILEDPGKIRERRDIGEEPIQKKQKMYRDQMQ [SahaCath7]", "values": [{"measurement": "Antibacterial (MIC <64ug/mL)", "setting": "[2]; [12]", "result": "N (Peel et al 2021) (Antibacterial (MIC <64ug/mL))"}, {"measurement": "Antifungal (MIC <64ug/mL)", "setting": "[3]; [12]", "result": "N (Peel et al 2021) (Antifungal (MIC <64ug/mL))"}]}, {"sequence": "SVPGTRAQSGTTSPGSGSRRVARSRG [OranCath6]", "values": [{"measurement": "Antibacterial (MIC <64ug/mL)", "setting": "[2]; [11]", "result": "N (Peel et al 2017) (Antibacterial (MIC <64ug/mL))"}, {"measurement": "Antifungal (MIC <64ug/mL)", "setting": "[3]; [11]", "result": "N (Peel et al 2017) (Antifungal (MIC <64ug/mL))"}]}, {"sequence": "TFKRKNGSRKNGHRPGGYSLIALGNKKVLKAPYMESI [SahaCath2]", "values": [{"measurement": "Antibacterial (MIC <64ug/mL)", "setting": "[2]; [13]", "result": "N (Peel et al 2016) (Antibacterial (MIC <64ug/mL))"}, {"measurement": "Antifungal (MIC <64ug/mL)", "setting": "[3]; [13]", "result": "N (Peel et al 2016) (Antifungal (MIC <64ug/mL))"}]}, {"sequence": "TLTQAHCPYFLRKKPEGEMATGGRPQETPKLLGAL [ModoCath10]", "values": [{"measurement": "Antibacterial (MIC <64ug/mL)", "setting": "[2]; [11]", "result": "N (Peel et al 2017) (Antibacterial (MIC <64ug/mL))"}, {"measurement": "Antifungal (MIC <64ug/mL)", "setting": "[3]; [11]", "result": "N (Peel et al 2017) (Antifungal (MIC <64ug/mL))"}]}, {"sequence": "TPELFRSRRSPLPGRKKGSKRPKPGSYSVIALGKPGLKKAPYMEAL [LahiCath1]", "values": [{"measurement": "Antibacterial (MIC <64ug/mL)", "setting": "[1]", "result": "N (Antibacterial (MIC <64ug/mL))"}]}, {"sequence": "VSESISHGIPKAISAVNKLIKKKKKGATTPRVK [ModoCath6]", "values": [{"measurement": "Antibacterial (MIC <64ug/mL)", "setting": "[2]; [11]", "result": "N (Peel et al 2017) (Antibacterial (MIC <64ug/mL))"}, {"measurement": "Antifungal (MIC <64ug/mL)", "setting": "[3]; [11]", "result": "N (Peel et al 2017) (Antifungal (MIC <64ug/mL))"}]}]}
